Source: paper PMC9603901, “Therapeutic Potential of Antimicrobial Peptide PN5 against Multidrug-Resistant E. coli and Anti-Inflammatory Activity in a Septic Mouse Model” (Microbiology Spectrum, 2022)
Values after ≈ are worked out from the molar mass of the structure shown.

Legend:
E. coli ATCC 25922 = test: NPN uptake, outer membrane permeability; assay type: cell-based, Escherichia coli; conditions: E. coli ATCC 25922, 4× MIC, 60 min, 10 μM NPN, relative to 0.1% Triton X-100
Experimental: The ability of PN5 to permeate the outer bacterial membrane was determined based on the uptake of NPN, a fluorescent dye. Briefly, E. coli 25922 cells grown to the logarithmic phase at 37°C were harvested by centrifugation at 6,000 × g and 4°C for 10 min. The bacterial cells were washed twice with 5 mM HEPES buffer (pH 7.4) and resuspended to OD600 of 0.4. NPN was added to the bacterial suspension at a final concentration of 10 μM. Aliquots of the peptides were added to the bacterial suspensions. Background fluorescence was recorded using a fluorescence spectrophotometer. The excitation and emission wavelengths were set to 350 and 420 nm, respectively. The values were converted to percentage of NPN uptake using the equation % NPN uptake = [(Fobs − F0)/(F100 − F0)] × 100, where Fobs is the fluorescence observed at each peptide concentration, F0 is the initial fluorescence of NPN with E. coli in the absence of peptides, and F100 is the fluorescence of NPN upon the addition of 0.1% Triton X-100, which was used as a positive control ([57]).

S. aureus ATCC 25923 = assay type: cell-based, Staphylococcus aureus; conditions: microdilution, TSB, 18 to 24 h, 37°C, three independent experiments
Experimental: (§1) Bacterial cells were cultured at 37°C in the appropriate culture media with shaking (180 rpm). Luria-Bertani broth (LB) (244620; BD Difco) was used for E. coli ATCC 25922, ASEC strains, and B. subtilis KCTC 2217. Nutrient broth (NB) (234000; BD Difco) was used for P. aeruginosa ATCC 27853, S. Typhimurium KCTC 1926, and A. baumannii KCTC 2508. Tryptic soy broth (TSB) (211825; BD Difco) was used for S. aureus ATCC 25923. Finally, brain heart infusion (BHI) (237500; BD Difco) was used for L. monocytogenes KCTC 3710. The antimicrobial activity of each peptide was determined using microdilution assays. To this end, 2-fold serial dilution series of each peptide (from 1 to 64 μM) were added to duplicate media with 10 mM sodium phosphate buffer (pH 7.4). Fifty microliters of the peptide and antibiotic solution was added to each well of a 96-well plate (32096, surface nontreatment; SPL Life Sciences). Then, 50 μL of 2 × 10^5 CFU mL^−1 of bacteria was added to each well, and the samples were incubated for 18 to 24 h without shaking at 37°C.

A. baumannii KCTC 2508 = assay type: cell-based, Acinetobacter baumannii; conditions: microdilution, NB, 18 to 24 h, 37°C, three independent experiments
Experimental: as §1

RAW 264.7 cells [1] = test: MTT cell viability; assay type: cell-based, mouse; conditions: 24 h
Experimental: (§2) RAW 264.7 cells (mouse macrophage cells) were maintained in high-glucose Dulbecco’s modified Eagle medium (DMEM) (Welgene, Daegu, South Korea) supplemented with 10% fetal bovine serum (FBS) (Gibco) and 1% penicillin at 37°C in humidified 5% CO2. Cells (2 × 10^5 cells well^−1) were seeded into DMEM supplemented with 10% FBS medium in a 96-well plate. The MTT assay was performed after culturing the cells in 96-well plates at a density of 2 × 10^5 cells well^−1, followed by treatment with serially diluted PN5, magainin 2, and melittin. After 24 h, the medium was discarded, and 100 μL DMEM and 10% FBS medium containing 0.5 mg mL^−1 MTT were added to each well. After 4 h of incubation, the medium was discarded and dimethyl sulfoxide was added to each well to solubilize the formazan. The optical densities at 570 and 650 nm (OD570 and OD650, respectively) of the treated cells were compared to those of control cells. The hemolytic activity of the peptides was evaluated as the release of hemoglobin from an 8% mRBC suspension. A 100-μL aliquot of the 8% mRBC suspension was added to the wells of a 96-well plate, and 100 μL of peptide solution in phosphate-buffered saline (PBS) was added at a final peptide concentration of 200 μM. After incubation for 1 h at 37°C with shaking (50 rpm), the suspensions were centrifuged at 1,000 × g for 5 min. The absorbance of the supernatant was measured at 414 nm using a Versa Max microplate reader (Molecular Devices). As a control, no hemolysis and complete hemolysis were determined in PBS and 0.1% Triton X-100, respectively. The degree of hemolysis was calculated using the following equation as described in reference: %hemolysis=[(A414withpeptide-A414withPBS)/(A414with0.1%TritonX-100-A414 with PBS)] × 100

MDR E. coli ASEC 16 = test: microbe, parasite or virus in culture; assay type: cell-based, Escherichia coli; conditions: microdilution, LB, 18 to 24 h, 37°C, three independent experiments
Experimental: as §1

MDR E. coli ASEC 5 = test: microbe, parasite or virus in culture; assay type: cell-based, Escherichia coli; conditions: microdilution, LB, 18 to 24 h, 37°C, three independent experiments
Experimental: as §1

MDR E. coli ASEC 14 = test: microbe, parasite or virus in culture; assay type: cell-based, Escherichia coli; conditions: microdilution, LB, 18 to 24 h, 37°C, three independent experiments
Experimental: as §1

MDR E. coli ASEC 18 = test: microbe, parasite or virus in culture; assay type: cell-based, Escherichia coli; conditions: microdilution, LB, 18 to 24 h, 37°C, three independent experiments
Experimental: as §1

MDR E. coli ASEC 13 = test: microbe, parasite or virus in culture; assay type: cell-based, Escherichia coli; conditions: microdilution, LB, 18 to 24 h, 37°C, three independent experiments
Experimental: as §1

MDR E. coli ASEC 1 = test: microbe, parasite or virus in culture; assay type: cell-based, Escherichia coli; conditions: microdilution, LB, 18 to 24 h, 37°C, three independent experiments
Experimental: as §1

MDR E. coli ASEC 10 = test: microbe, parasite or virus in culture; assay type: cell-based, Escherichia coli; conditions: microdilution, LB, 18 to 24 h, 37°C, three independent experiments
Experimental: as §1

MDR E. coli ASEC 8 = test: microbe, parasite or virus in culture; assay type: cell-based, Escherichia coli; conditions: microdilution, LB, 18 to 24 h, 37°C, three independent experiments
Experimental: as §1

MDR E. coli ASEC 15 = test: microbe, parasite or virus in culture; assay type: cell-based, Escherichia coli; conditions: microdilution, LB, 18 to 24 h, 37°C, three independent experiments
Experimental: as §1

MDR E. coli ASEC 7 = test: microbe, parasite or virus in culture; assay type: cell-based, Escherichia coli; conditions: microdilution, LB, 18 to 24 h, 37°C, three independent experiments
Experimental: as §1

MDR E. coli ASEC 12 = test: microbe, parasite or virus in culture; assay type: cell-based, Escherichia coli; conditions: microdilution, LB, 18 to 24 h, 37°C, three independent experiments
Experimental: as §1

MDR E. coli ASEC 9 = test: microbe, parasite or virus in culture; assay type: cell-based, Escherichia coli; conditions: microdilution, LB, 18 to 24 h, 37°C, three independent experiments
Experimental: as §1

MDR E. coli ASEC 2 = test: microbe, parasite or virus in culture; assay type: cell-based, Escherichia coli; conditions: microdilution, LB, 18 to 24 h, 37°C, three independent experiments
Experimental: as §1

MDR E. coli ASEC 11 = test: microbe, parasite or virus in culture; assay type: cell-based, Escherichia coli; conditions: microdilution, LB, 18 to 24 h, 37°C, three independent experiments
Experimental: as §1

MDR E. coli ASEC 6 = test: microbe, parasite or virus in culture; assay type: cell-based, Escherichia coli; conditions: microdilution, LB, 18 to 24 h, 37°C, three independent experiments
Experimental: as §1

MDR E. coli ASEC 3 = test: microbe, parasite or virus in culture; assay type: cell-based, Escherichia coli; conditions: microdilution, LB, 18 to 24 h, 37°C, three independent experiments
Experimental: as §1

B. subtilis KCTC 2217 = assay type: cell-based, Bacillus subtilis; conditions: microdilution, LB, 18 to 24 h, 37°C, three independent experiments
Experimental: as §1

P. aeruginosa ATCC 27853 = assay type: cell-based, Pseudomonas aeruginosa; conditions: microdilution, NB, 18 to 24 h, 37°C, three independent experiments
Experimental: as §1

mouse red blood cells = test: Hemolytic activity; assay type: cell-based; conditions: 8% mouse red blood cells, 1 h, 37°C
Experimental: as §2

[2] = system: L. monocytogenes KCTC 3710; assay type: cell-based, Listeria monocytogenes; conditions: microdilution, BHI, 18 to 24 h, 37°C, three independent experiments
Experimental: as §1

MDR E. coli ASEC 17 = test: microbe, parasite or virus in culture; assay type: cell-based, Escherichia coli; conditions: microdilution, LB, 18 to 24 h, 37°C, three independent experiments
Experimental: as §1

MDR E. coli ASEC 19 = test: microbe, parasite or virus in culture; assay type: cell-based, Escherichia coli; conditions: microdilution, LB, 18 to 24 h, 37°C, three independent experiments
Experimental: as §1

MDR E. coli ASEC 4 = test: microbe, parasite or virus in culture; assay type: cell-based, Escherichia coli; conditions: microdilution, LB, 18 to 24 h, 37°C, three independent experiments
Experimental: as §1

RAW 264.7 cells [3] = test: IncuCyte Cytotox green time-dependent cytotoxicity; assay type: cell-based, mouse; conditions: 25 μM
Experimental: An IncuCyte cytotoxicity assay (Essen BioScience, Inc., Ann Arbor, MI, USA) was performed to evaluate time-dependent cytotoxicity. RAW 264.7 cells (2 × 10^5 cells well^−1) were seeded into 96-well culture plates and then treated with peptides and IncuCyte Cytotox green reagent (Essen BioScience, Inc.). Up to 200 μM PN5 and 25 μM melittin were used to treat RAW 264.7 cells, with the concentrations serially diluted by half. […] The cells were stained with IncuCyte Cytotox green reagent. The viability was measured using IncuCyte software (Essen BioScience, Inc.) ([56]).

S. Typhimurium KCTC 1926 = assay type: cell-based, Salmonella enterica serovar Typhimurium; conditions: microdilution, NB, 18 to 24 h, 37°C, three independent experiments
Experimental: as §1

Molecule | MIC (A. baumannii KCTC 2508) | MIC (MDR E. coli ASEC 16) | MIC (MDR E. coli ASEC 5) | MIC (MDR E. coli ASEC 14) | MIC (MDR E. coli ASEC 18) | MIC (MDR E. coli ASEC 13) | MIC (MDR E. coli ASEC 1) | MIC (MDR E. coli ASEC 10) | MIC (MDR E. coli ASEC 8) | MIC (MDR E. coli ASEC 15) | MIC (MDR E. coli ASEC 7) | MIC (MDR E. coli ASEC 12) | MIC (MDR E. coli ASEC 9) | MIC (MDR E. coli ASEC 2) | MIC (MDR E. coli ASEC 11) | MIC (MDR E. coli ASEC 6) | MIC (MDR E. coli ASEC 3) | MIC (B. subtilis KCTC 2217) | further results
Magainin 2 | 19.74 µg/mL | 8 (19.74) μM | 16 (39.47) μM | 4 (9.87) μM | 16 (39.47) μM | 16 (39.47) μM | 16 (39.47) μM | 16 (39.47) μM | 16 (39.47) μM | 16 (39.47) μM | 8 (19.74) μM | 16 (39.47) μM | 8 (19.74) μM | 8 (19.74) μM | 16 (39.47) μM | 4 (9.87) μM | 16 (39.47) μM | 39.47 µg/mL | NPN uptake (E. coli ATCC 25922): 35.7%; MIC (S. aureus ATCC 25923): 39.47 µg/mL; toxicity, MTT assay (RAW 264.7 cells [1]; 200 μM): over 50%; MIC (P. aeruginosa ATCC 27853): 32 µM
CC[C@H](C)[C@H](NC(=O)CN)C(=O)NCC(=O)N[C@@H](C)C(=O)N[C@H](C(=O)N[C@@H](CC(C)C)C(=O)N[C@@H](CCCCN)C(=O)N[C@H](C(=O)N[C@@H](CC(C)C)C(=O)N[C@H](C(=O)N[C@H](C(=O)NCC(=O)N[C@@H](CC(C)C)C(=O)N1CCC[C@H]1C(=O)N[C@@H](C)C(=O)N[C@@H](CC(C)C)C(=O)N[C@H](C(=O)N[C@@H](CO)C(=O)N[C@@H](Cc1c[nH]c2ccccc12)C(=O)N[C@H](C(=O)N[C@@H](CCCCN)C(=O)N[C@@H](CCCNC(=N)N)C(=O)N[C@@H](CCCCN)C(=O)N[C@@H](CCCNC(=N)N)C(=O)N[C@@H](CCC(N)=O)C(=O)N[C@@H](CCC(N)=O)C(N)=O)[C@@H](C)CC)[C@@H](C)CC)[C@@H](C)O)[C@@H](C)O)C(C)C)C(C)C [Melittin] | 2 µM | 4 (11.39) μM | 2 (5.69) μM | 2 (5.69) μM | 4 (11.39) μM | 4 (11.39) μM | 4 (11.39) μM | 4 (11.39) μM | 4 (11.39) μM | 4 (11.39) μM | 4 (11.39) μM | 4 (11.39) μM | 4 (11.39) μM | 4 (11.39) μM | 4 (11.39) μM | 4 (11.39) μM | 4 (11.39) μM | 2 µM | hemolysis (mouse red blood cells; 3.125 μM, PBS, A414, mean of three experiments): 44.02%; hemolysis (mouse red blood cells; 6.25 μM): 77.24%; toxicity, MTT assay (RAW 264.7 cells [1]; 6.25 μM): over 50%; MIC [2]: 4 µM (≈ 11.4 µg/mL); MIC (MDR E. coli ASEC 17): 8 (22.77) μM; MIC (MDR E. coli ASEC 19): 8 (22.77) μM; MIC (MDR E. coli ASEC 4): 8 (22.77) μM; cytotoxicity, Cytotox green fluorescence (RAW 264.7 cells [3]): immediately damaged the cells; MIC (S. Typhimurium KCTC 1926): 4 µM (≈ 11.4 µg/mL)
